In the assay the target is T1, Interleukin-1 receptor-associated kinase 4 (Homo sapiens, UniProt Q9NWZ3).
T1 sequence (Q9NWZ3 whole entry): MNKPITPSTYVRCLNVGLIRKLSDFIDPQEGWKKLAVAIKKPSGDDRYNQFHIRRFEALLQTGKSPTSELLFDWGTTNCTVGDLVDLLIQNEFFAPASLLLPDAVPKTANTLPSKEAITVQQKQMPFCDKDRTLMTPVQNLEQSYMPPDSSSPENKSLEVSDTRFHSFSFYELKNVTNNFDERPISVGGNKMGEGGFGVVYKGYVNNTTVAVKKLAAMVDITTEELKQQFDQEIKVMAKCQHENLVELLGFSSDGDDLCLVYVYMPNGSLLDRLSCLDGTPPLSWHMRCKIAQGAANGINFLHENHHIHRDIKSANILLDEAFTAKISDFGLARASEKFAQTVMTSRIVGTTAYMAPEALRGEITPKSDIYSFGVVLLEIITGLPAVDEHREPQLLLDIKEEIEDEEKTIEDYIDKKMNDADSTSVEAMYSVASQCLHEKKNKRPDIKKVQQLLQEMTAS
Description: Biochemical Assay: The biochemical assay is in a AlphaScreen format. The kinase reaction is based on the IRAK-4 phosphorylation of a biotin labeled peptide. The phosphopeptide is incubated with anti-phosphothreonine antibody as well as streptavidin- and protein A-coated beads. Binding of the protein-A coated beads to the antibody and the streptavidin beads to the peptide, leads to an energy transfer from one bead to the other, ultimately producing a luminescent/fluorescent signal.Generally, the kinase reaction is carried out at 1 nM IRAK4, 1.6 μM peptide, 10 μM ATP in reaction buffer 50 mM Hepes, 60 mM NaCl, 5 mM MgCl2, 0.25 mM MnCl2, 2 mM DTT, 0.01% BSA, 0.01% Tween-20) for 3.5 h at RT.

The record followed here is ChEMBL document CHEMBL5726119, “Macrocyclic compounds as IRAK4 inhibitors for the treatment of inflammatory diseases” (2017).

For the compound `CC(C)C1NC(=O)c2nn(C3CCOCC3)cc2NC(=O)c2csc(n2)-c2ccnc(c2)CCCNC1=O` (stereo not given), the half-maximal inhibitory concentration (IC50) – broadly, the concentration needed to halve the response being measured – is less than 10 µM.

Regarding `Cn1cc2c(n1)C(=O)NCCOCCOc1cc(ccn1)-c1cncc(c1)C(=O)N2`, the concentration for half-maximal inhibition (IC50) was less than 10 µM.

For `Cn1cc2c(n1)C(=O)NCCOCCOc1cc(ccn1)-c1cc(ccn1)C(=O)N2`, the IC50 is less than 1 µM.

`O=C1NCCCOC2CCCC(CNc3cc(ccn3)-c3nc1cs3)C2` (stereo not given): the 50% inhibitory concentration (IC50) is greater than 10 µM.

Compound `Cn1cc2c(n1)C(=O)NCCOCCOc1cc(ccn1)-c1cc(cs1)C(=O)N2` displayed an IC50 of less than 0.1 µM.
